Assays:
Hermetia illucens larvae [1] = experiment: Maggot Inhibitory Assay (MIA) with solutions of insecticide or lidocaine infused into wet chicken feed (Example 3); format: in vivo; conditions: for insecticide or repellant activity as demonstrated by weight loss and maggot death: solution or neat liquid mixed into wet chicken feed, 5 larvae per dish, ~30 °C
Text: Determination of anti-myiasis activity by solutions of insecticide, or a lidocaine solution, was studied by Maggot Inhibitory Assay (MIA).
Seven (7) Test and Control Articles: Wet chicken feed (positive control), Tetrahydrafuran infused feed (THF; carrier control), Isopropyl Myristate infused feed (IPM; permeation enhancer control), Lidocaine solution infused feed (LD), Ivermectin infused feed (Iver), Imidacloprid infused feed (IMI), Spinosad infused feed (Spin).
One (1) test organism: Hermetia illucens larvae, “medium size” 3rd instar feeding (crop-full), mean weight 45-60 mg.
• Contact Time: 7 Days • Contact Temperature: 30±2° C. Test Method Overview: See FIG. 10 for Diagrammatic Overview.
Fresh wet chicken feed (WCF) and Hermetia illucens larvae (3rd instar feeding (crop-full) mean weight 45-60 mg) were obtained within 48 hours of the start of the testing. A small (60 mm diameter) petri dish served as the test container for each replicate. Solutions of the test substances were added onto the fresh WCF, and then the WCF with solution was placed into the center of the container and weighed. The POS control utilized an approximately similar-sized sample of fresh WCF, without any solution being added. Five (5) larvae were placed on each test and control article infused the fresh WCF. The lid was placed on the petri dish and the dish was wrapped in parafilm. The test and control containers were kept in an incubator at ˜30° C. temperature, in the dark. Larvae were observed daily for up to two (2) weeks, noting motility and pupation.
A portion of the solution was retained in a sealed glass vial for possible QA/QC. The WCF sample with solution added was mixed thoroughly and left in a fume hood for up to 72 hours to let THE evaporate off.
Test and control containers had about 2.0 g of test solution infused WCF placed into the center of the wetted filter paper.
Each test and control article were prepared in the individual 60 mm petri dishes in triplicate as described, >48 hours before study start. Five (5) larvae were weighed as a group and recorded for each test and control article. The lid was placed on the petri fish and this was wrapped in parafilm, as described. The test and control containers were kept in the incubator at temperature ˜30° C. in the dark. Larvae are observed daily up to two weeks, noting observations on food consumption, weight and pupation.
The weight of the 5 larvae in each assay replicate were determined and recorded by: (a) removing the lid and weighing the container without the lid (larvae+WCF+container); and (b) taring the scale and gently placing the 5 larvae into the lid and recording the total weight.
The results are shown in FIG. 11 as weight gain per maggot over time. At time 0, 5 maggots were placed into each of 3 pre-weighed petri dishes WCF mixed with the following, as described: nothing (OTS), Tetrahydrofuran (THF), Isopropyl Myristate (IPM), Lidocaine (LD), Ivermectin (Iver), Imidacloprid (IMI), or Spinosad (Spin). At each indicated time point, the weight of maggots was recorded and divided by the number of maggots per dish to calculate the weight per maggot. The weight per maggot at time 0 was then subtracted from that at each time point to calculate the weight gain per maggot. Bars represent the mean±standard deviation of 3 replicate petri dishes. In FIG. 11, statistical significance for each solution, relative to the OTS control, was determined using a repeated measures mixed effects model and each petri dish as the experimental unit (fixed effects were time, solution, and time×solution interaction; random effects were individual petri dishes and residuals); p-values were corrected for multiple comparisons with Dunnett's test. *, p<0.05; **, p<0.01; ***, p<0.001; ****, p<0.0001.

Hermetia illucens larvae [2] = experiment: Maggot Inhibitory Assay (MIA) with ivermectin and lidocaine bands, unused or previously affixed to Holstein calves (Example 4); format: in vivo; conditions: positive control solution (1.31 g in 2.35 g THF) in wet chicken feed
Text: Evaluation of duration of efficacy of anti-myiasis activity by elastomeric bands loaded/infused with insecticide, with or without an active agent for the topical treatment of pain, was studied via ex vivo tissue and band collection and using Maggot Inhibitory Assay (MIA).
Experimental goal: The aim of this experiment was to assess the long-term function of elastomeric bands infused with insecticide, with or without lidocaine, to inhibit the growth of larvae using the novel MIA test disclosed herein, by evaluating the function of ex vivo tissue biopsies taken from scrotal tissue and drug-infused elastomeric bands which were previously placed on Holstein calves for various time periods (3, 7, 14, 21 and 30 days). The protocol used and presented here is based on published literature (Kotze et al., (2022) “Resistance to dicyclanil and imidacloprid in the sheep blowfly, Lucilia cuprina, in Australia”, Pest Manag Sci, 78:4195-4206).
Ivermectin control: A solution of ivermectin was prepared as a positive control (1.31 g ivermectin into 2.35 g of THF). (n=3)
Exposed ILLB: Elastomeric bands infused with ivermectin and lidocaine that were affixed to scrotal sites and removed at each time point. (n=3×5 experiments=15) […]
Animals were randomly allocated to the study. […] Animal IDs and treatment codes were recorded. […] Animals were monitored for any adverse effects. […]

Row | Compound | insecticide or repellant activity as demonstrated by weight loss and maggot death (Hermetia illucens larvae [1]) | maggot weight change (Hermetia illucens larvae [2]) | activity as an insecticide compared with commercial insecticides (ivermectin, imidacloprid, spinosad) (Hermetia illucens larvae [1]; lidocaine in solution and infused into an elastomeric band)
1 | O=[N+]([O-])NC1=NCCN1Cc1ccc(Cl)nc1 [imidacloprid] | effective insecticide or repellant activity | – | –
2 | C1CCOC1 [Tetrahydrofuran] | no insecticide or repellant activity | – | –
3 | ivermectin | effective insecticide or repellant activity | a decline or no weight gain | –
4 | spinosad | effective insecticide or repellant activity | – | –
5 | CCCCCCCCCCCCCC(=O)OC(C)C [isopropyl myristate] | no insecticide or repellant activity | – | –
6 | CCN(CC)CC(=O)Nc1c(C)cccc1C [lidocaine solution, lidocaine] | effective insecticide or repellant activity | – | equivalent to commercial insecticides

Reference: patent US12465472B2, “Methods of insect control for an animal, products thereof and methods for their preparation” (priority 2023, dated 2025)
